How the values were obtained:
[1] = system: basket-type (wtTel22 in Na+) and hybrid-type (Tel26 in K+) human telomeric G4s; experiment: 1D 1H NMR titration with telomeric G4s; format: binding
Text: The binding selectivity of BMVC to G4 structures and flanking sequences was confirmed by NMR titration experiments of BMVC to different G4 sequences, including parallel-stranded MYC_14/23T G4 and its 5′- and 3′-flanking variants, VEGF and MYC1234 G4s, basket-type human telomeric G4 (wtTel22 in Na+), and hybrid type human telomeric G4 (Tel26 in K+) (FIG. 12). BMVC binds best to the MYC_14/23T G4, as indicated by well-resolved imino proton peaks for BMVC complexes (FIG. 12, panel a). […] In contrast, the 3′-end binding of BMVC is sensitive to the mutations at the 3′-flanking sequence, with a clear preference for the 3′-flanking T. In addition, BMVC prefers at least two flanking bases for a specific binding.
G4 DNA oligonucleotides were synthesized using β-cyanoethylphosphoramidite solid-phase chemistry (Applied Biosystem Expedite 8909), as described previously. NMR experiments were performed on a Bruker AV-III-500-HD equipped with a BBFO Z-gradient cryoprobe. DNA samples were heated to 95° C. for 5 min, then cooled slowly for G4 formation. For the 1D 1H NMR experiments, samples contained 100-250 μM DNA in an appropriate buffer solution with 10% D2O for the lock. The titrations were performed by adding increasing amounts of the compounds to the DNA samples in solution.

human telomeric G4s = experiment: G4 microarray competition with Cy5-PDS, telomeric G4s; format: binding; settings: 1 μM BMVC and 1 μM Cy5-PDS
Description: (§1) Custom G4 microarrays have been designed that contain a total of 19,249 G4 DNA sequences [31, the entirety of disclosure of which, including the supplemental information, is incorporated herein by reference]. The G4 microarrays were created by covalently attaching thousands of unique G4-forming DNA 60-mers to a glass surface. Pyridostatin (PDS) is a known G4-interactive compound. […] To test the binding selectivity of BMVC, competition experiments using custom G4 microarrays were performed. The addition of potassium-containing solution to G4-forming oligonucleotides induced G4 formation. […] After washing to remove the unbound Cy5-PDS and BMVC, the fluorescence intensities of Cy5-PDS bound to DNA oligonucleotides were detected using a fluorescence scanner. The binding selectivity of BMVC to different G4 structures was assessed by measuring the relative fluorescence intensity reduction of Cy5-PDS as BMVC concentration increased.
(§2) To determine the G4-binding selectivity of BMVC, the BMVC binding to known G4 structures was examined, including 7 well-studied MYC promoter G4 sequences, 15 other oncogene promoter G4 sequences, and 3 human telomeric G4 sequences (TABLE 4). BMVC competes with the binding of Cy5-PDS to most G4 sequences in a dose-dependent manner as indicated by reduced fluorescence intensities (FIG. 8a). […]

[2] = system: PDGF-A_Pu48, MYB, Bcl-2_P1G4 and Bcl2_55G G4 sequences; experiment: G4 microarray competition with Cy5-PDS, other oncogene promoter G4s; format: binding, human
Description: Custom G4 microarrays have been designed that contain a total of 19,249 G4 DNA sequences [31, the entirety of disclosure of which, including the supplemental information, is incorporated herein by reference]. The G4 microarrays were created by covalently attaching thousands of unique G4-forming DNA 60-mers to a glass surface. Pyridostatin (PDS) is a known G4-interactive compound. […] To test the binding selectivity of BMVC, competition experiments using custom G4 microarrays were performed. The addition of potassium-containing solution to G4-forming oligonucleotides induced G4 formation. Subsequently, the microarrays were incubated with 1 μM Cy5-PDS in the absence or presence of 1 μM, 3 μM, or 10 μM of the unlabeled BMVC molecule. After washing to remove the unbound Cy5-PDS and BMVC, the fluorescence intensities of Cy5-PDS bound to DNA oligonucleotides were detected using a fluorescence scanner. The binding selectivity of BMVC to different G4 structures was assessed by measuring the relative fluorescence intensity reduction of Cy5-PDS as BMVC concentration increased.
To determine the G4-binding selectivity of BMVC, the BMVC binding to known G4 structures was examined, including 7 well-studied MYC promoter G4 sequences, 15 other oncogene promoter G4 sequences, and 3 human telomeric G4 sequences (TABLE 4). BMVC competes with the binding of Cy5-PDS to most G4 sequences in a dose-dependent manner as indicated by reduced fluorescence intensities (FIG. 8a).
DNA Microarray Binding Experiments DNA microarray experiments were performed and analyzed as described previously. Microarrays were preincubated with a pH 7.4 phosphate buffer solution with 100 mM potassium for 1 h at room temperature to induce G4 formation. […]
Data Processing and Analysis Molecule-bound microarrays were scanned with an Agilent G5761A SureScan Dx Microarray Scanner System to detect Cy5 signal at two laser settings (30 and 100 PMT). Spot intensities from microarray images were extracted using Agilent Feature Extraction Software and are reported as raw fluorescence intensities. […]

MYC_14/23T G4 = experiment: G4 microarray competition with Cy5-PDS, MYC_14/23T; format: binding, human; settings: MYC_14/23T G4, 1 μM BMVC and 1 μM Cy5-PDS
Description: as §1, §2

SMILES: C[n+]1ccc(/C=C/c2ccc3[nH]c4ccc(/C=C/c5cc[n+](C)cc5)cc4c3c2)cc1.[I-].[I-] [BMVC, 3,6-Bis(1-methyl-4-vinylpyridinium) carbazole diiodide]
- binding to basket-type or hybrid-type human telomeric G4s by NMR titration [1]: did not show specific binding
- inhibition of Cy5-PDS binding to human telomeric G4s (human telomeric G4s): significantly inhibited
- binding to Bcl2_55G ([2]; competition with Cy5-PDS): good binding
- binding to Bcl-2_P1G4 ([2]; competition with Cy5-PDS, compared with Bcl2_55G): markedly weaker
- binding to PDGF-A_Pu48 and MYB sequences relative to Cy5-PDS ([2]; equimolar competition): much weaker
- reduction of Cy5-PDS binding among all parallel G4s (MYC_14/23T G4): largest reduction

— patent US20210333284A1, “METHODS AND MATERIALS FOR LARGE-SCALE ASSESSMENT OF LIGAND BINDING SELECTIVITY OF G-QUADRUPLEX RECOGNITION USING CUSTOM G4 MICROARRAYS” (Purdue Research Foundation, priority 2020, published 2021)
